In patent US9481676B2, “Azepino[4,5-B]indoles and methods of use” (Medivation Technologies, Inc., priority 2008, dated 2016):

What was measured:
[1] = target: T1, human recombinant histamine H1 receptor (Homo sapiens, UniProt P35367); test: Histamine H1 radioligand binding ([3H]Pyrilamine); settings: compound at 1 μM; read-out: Histamine Binding (1 μM) H1, percent inhibition of specific binding
T1 construct: expressed in transfected cells; host or cells: CHO cells
Summary of the method: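 Membranes from CHO cells expressing the receptor were incubated with compound and 1.2 nM [3H]pyrilamine for 180 min at 25 °C in 50 mM Tris-HCl pH 7.4 with MgCl2, NaCl and sucrose; 1 μM pyrilamine defined non-specific binding. Filter-bound radioactivity was counted.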

[2] = target: T2, human recombinant adrenergic α2A receptor (Homo sapiens, UniProt P08913); test: Adrenergic alpha2A radioligand binding ([3H]MK-912); settings: compound at 1 μM; read-out: Adrenergic (1 μM) α2A, percent inhibition of specific binding
T2 construct: expressed in transfected cells; host or cells: insect Sf9 cells
T2 sequence (P08913 1-465): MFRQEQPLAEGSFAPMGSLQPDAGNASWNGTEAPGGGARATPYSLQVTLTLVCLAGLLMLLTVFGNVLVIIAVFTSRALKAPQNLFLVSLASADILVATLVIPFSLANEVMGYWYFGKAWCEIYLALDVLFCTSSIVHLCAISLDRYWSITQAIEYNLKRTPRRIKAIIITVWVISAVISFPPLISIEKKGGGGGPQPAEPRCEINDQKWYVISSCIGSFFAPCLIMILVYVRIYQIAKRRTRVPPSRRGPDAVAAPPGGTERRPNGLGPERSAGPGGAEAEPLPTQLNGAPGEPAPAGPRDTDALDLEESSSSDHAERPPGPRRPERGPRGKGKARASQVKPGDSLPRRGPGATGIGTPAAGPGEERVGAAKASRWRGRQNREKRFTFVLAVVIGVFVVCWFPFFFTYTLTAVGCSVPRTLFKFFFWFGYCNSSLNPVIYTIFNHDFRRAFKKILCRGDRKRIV
Summary of the method: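 Membranes of Sf9 cells expressing human recombinant α2A receptor were incubated with compound and 1 nM [3H]MK-912 for 60 min at 25 °C in 50 mM Tris-HCl pH 7.4, 12.5 mM MgCl2, 2 mM EDTA. Nonspecific binding: 10 μM WB-4101.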

[3] = target: T3, human recombinant adrenergic α2B receptor (Homo sapiens, UniProt P18089); test: Adrenergic alpha2B radioligand binding ([3H]Rauwolscine); settings: compound at 1 μM; read-out: Adrenergic (1 μM) α2B, percent inhibition of specific binding
T3 construct: expressed in transfected cells; host or cells: CHO-K1 cells
T3 sequence (P18089 1-450): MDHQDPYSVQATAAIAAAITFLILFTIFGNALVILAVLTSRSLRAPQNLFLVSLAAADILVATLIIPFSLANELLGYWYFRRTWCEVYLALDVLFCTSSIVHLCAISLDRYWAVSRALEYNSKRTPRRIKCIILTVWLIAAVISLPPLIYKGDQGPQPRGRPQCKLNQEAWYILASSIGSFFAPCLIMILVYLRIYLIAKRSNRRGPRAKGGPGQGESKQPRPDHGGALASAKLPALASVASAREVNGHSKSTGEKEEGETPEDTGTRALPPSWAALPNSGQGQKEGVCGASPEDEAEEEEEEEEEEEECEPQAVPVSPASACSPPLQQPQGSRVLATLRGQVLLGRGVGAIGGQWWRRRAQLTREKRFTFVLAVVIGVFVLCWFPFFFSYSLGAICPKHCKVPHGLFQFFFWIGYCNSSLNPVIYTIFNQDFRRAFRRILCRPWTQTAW
Summary of the method: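 CHO-K1-expressed receptor in Tris-HCl pH 7.4 with MgCl2, EDTA, BSA, incubated 60 min at 25° C with 2.5 nM [3H]Rauwolscine; 10 μM prazosin defines non-specific binding.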

[4] = target: T4, human recombinant serotonin (5-Hydroxytryptamine) 5-HT2A receptor (Homo sapiens, UniProt P28223); test: Serotonin 5-HT2A radioligand binding ([3H]Ketanserin); settings: compound at 1 μM; read-out: Serotonin (1 μM) 5-HT2A, percent inhibition of specific binding
T4 construct: expressed in transfected cells; host or cells: CHO-K1 cells
Summary of the method: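 Percent inhibition of specific [3H]ketanserin (0.5 nM) binding, filtration read-out, with compounds at ≤1 μM (1% DMSO vehicle). Receptor source: recombinant human 5-HT2A in CHO-K1 cells, 50 mM Tris-HCl pH 7.4, 60 min, 25 °C; 1 μM mianserin gives nonspecific binding.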

T1 sequence (P35367 whole entry): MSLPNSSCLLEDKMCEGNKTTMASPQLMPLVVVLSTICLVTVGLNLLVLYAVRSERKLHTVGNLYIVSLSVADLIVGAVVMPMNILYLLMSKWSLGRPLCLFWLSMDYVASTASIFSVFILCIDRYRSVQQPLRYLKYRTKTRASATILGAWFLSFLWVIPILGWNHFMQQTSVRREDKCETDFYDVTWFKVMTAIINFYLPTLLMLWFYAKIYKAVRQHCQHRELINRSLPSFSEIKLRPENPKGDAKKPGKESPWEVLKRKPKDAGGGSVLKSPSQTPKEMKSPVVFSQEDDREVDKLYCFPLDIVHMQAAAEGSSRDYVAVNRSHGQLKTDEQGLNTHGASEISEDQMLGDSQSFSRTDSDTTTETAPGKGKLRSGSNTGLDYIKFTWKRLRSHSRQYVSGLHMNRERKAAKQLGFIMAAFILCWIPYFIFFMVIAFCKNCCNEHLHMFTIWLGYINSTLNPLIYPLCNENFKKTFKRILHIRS
T4 sequence (P28223 whole entry): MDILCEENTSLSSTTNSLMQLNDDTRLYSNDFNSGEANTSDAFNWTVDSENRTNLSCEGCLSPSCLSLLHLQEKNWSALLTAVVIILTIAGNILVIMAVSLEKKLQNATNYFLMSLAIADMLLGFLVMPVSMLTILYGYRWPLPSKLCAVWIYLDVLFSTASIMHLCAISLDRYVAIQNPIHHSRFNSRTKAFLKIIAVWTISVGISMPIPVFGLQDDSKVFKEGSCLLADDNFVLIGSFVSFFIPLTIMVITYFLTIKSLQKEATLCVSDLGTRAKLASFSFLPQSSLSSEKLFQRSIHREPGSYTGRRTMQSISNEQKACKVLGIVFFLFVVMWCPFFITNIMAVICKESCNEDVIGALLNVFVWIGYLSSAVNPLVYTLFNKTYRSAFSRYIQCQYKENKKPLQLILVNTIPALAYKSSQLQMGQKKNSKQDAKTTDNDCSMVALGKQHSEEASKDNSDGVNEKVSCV

| SMILES | inhibition at 1 µM [1] | inhibition at 1 µM [2] | inhibition at 1 µM [3] | inhibition at 1 µM [4] |
| --- | --- | --- | --- | --- |
| COc1ccc(/C=C/n2c3c(c4cc(Cl)ccc42)CCN(C)CC3)cc1OC [Compound No. 226, (E)-9-chloro-6-(3,4-dimethoxystyryl)-3-methyl-1,2,3,4,5,6-hexahydroazepino[4,5-b]indole] | 99% | 93% | 102% | 92% |
| C/C(=C/n1c2c(c3cc(C)ccc31)CCN(C)CC2)c1ccc(Cl)cc1Cl [Compound No. 174, (Z)-6-(2-(2,4-dichlorophenyl)prop-1-enyl)-1,2,3,4,5,6-hexahydro-3,9-dimethylazepino[4,5-b]indole] | 98% | 101% | 105% | 102% |
| COc1ccc(C(O)Cn2c3c(c4cc(C)ccc42)CCN(C)CC3)cc1OC (stereo not drawn) [Compound No. 227, 1-(3,4-dimethoxyphenyl)-2-(3,9-dimethyl-2,3,4,5-tetrahydroazepino[4,5-b]indol-6(1H)-yl)ethanol] | 95% | 70% | 98% | 85% |
| C/C(=C/n1c2c(c3cc(Cl)ccc31)CCN(C)CC2)c1ccc(Cl)cc1Cl [Compound No. 152, (Z)-9-chloro-6-(2-(2,4-dichlorophenyl)prop-1-enyl)-1,2,3,4,5,6-hexahydro-3-methylazepino[4,5-b]indole] | 91% | 93% | 88% | 100% |
| Cc1ccc2c(c1)c1c(n2CC(=O)Nc2ccccc2)CCN(C)CC1 [Compound No. 79, 2-(2,3,4,5-tetrahydro-3,9-dimethylazepino[4,5-b]indol-6(1H)-yl)-N-phenylacetamide] | 6% | 17% | 20% | -8% |
| CN1CCc2c(n(/C=C/c3ccccc3F)c3ccc(Cl)cc23)CC1 [Compound No. 83, (E)-9-chloro-6-(2-fluorostyryl)-3-methyl-1,2,3,4,5,6-hexahydro azepino[4,5-b]indole] | 97% | 99% | 113% | 99% |
| COc1ccc(/C=C/n2c3c(c4cc(Cl)ccc42)CCN(C)CC3)cc1F [Compound No. 158, (E)-6-(3-fluoro-4-methoxystyryl)-9-chloro-1,2,3,4,5,6-hexahydro-3-methylazepino[4,5-b]indole] | 98% | 99% | 109% | 101% |
| C/C(=C\n1c2c(c3cc(Cl)ccc31)CCN(C)CC2)c1ccc(F)cc1 [Compound No. 2, 9-chloro-6-((E)-2-(4-fluorophenyl)prop-1-enyl)-1,2,3,4,5,6-hexahydro-3-methylazepino[4,5-b]indole] | 93% | 96% | 111% | 99% |
| CN1CCc2c(n(/C=C/c3ccccc3)c3ccc(Cl)cc23)CC1 [Compound No. 228, (E)-9-chloro-3-methyl-6-styryl-1,2,3,4,5,6-hexahydroazepino[4,5-b]indole] | 99% | 102% | 110% | 99% |
| COc1ccc(C(O)Cn2c3c(c4cc(Cl)ccc42)CCN(C)CC3)cc1OC (stereo not drawn) [Compound No. 77, 2-(9-chloro-2,3,4,5-tetrahydro-3-methylazepino[4,5-b]indol-6(1H)-yl)-1-(3,4-dimethoxyphenyl)ethanol] | 97% | 85% | 113% | 90% |
| CN1CCc2c(n(CCc3ccc(C(F)(F)F)nc3)c3ccc(Cl)cc23)CC1 [Compound No. 1, 9-chloro-6-(2-(6-(trifluoromethyl)pyridin-3-yl)ethyl)-1,2,3,4,5,6-hexahydro-3-methylazepino[4,5-b]indole] | 96% | 90% | 107% | 98% |
| COc1ccc(/C=C/n2c3c(c4cc(Cl)ccc42)CCN(C)CC3)cc1 [Compound No. 78, 6-(4-methoxystyryl)-9-chloro-1,2,3,4,5,6-hexahydro-3-methylazepino[4,5-b]indole] | 100% | 83% | 111% | 100% |
| C=C(Cn1c2c(c3cc(Cl)ccc31)CCN(C)CC2)c1ccc(F)cc1 [Compound No. 82, 9-chloro-6-(2-(4-fluorophenyl)allyl)-3-methyl-1,2,3,4,5,6-hexahydroazepino[4,5-b]indole] | 103% | 96% | 91% | 98% |
| COc1ccc(/C=C/n2c3c(c4cc(C)ccc42)CCN(C)CC3)cc1F [Compound No. 180, (E)-6-(3-fluoro-4-methoxystyryl)-1,2,3,4,5,6-hexahydro-3,9-dimethylazepino[4,5-b]indole] | 97% | 99% | 103% | 101% |
| Cc1ccc2c(c1)c1c(n2CC(=O)N2CCNCC2)CCN(C)CC1 [Compound No. 224, 2-(3,9-dimethyl-2,3,4,5-tetrahydroazepino[4,5-b]indol-6(1H)-yl)-1-(piperazin-1-yl)ethanone] | 33% | 8% | -6% | -7% |
| Cc1cncc(CCn2c3c(c4cc(Cl)ccc42)CCN(C)CC3)c1 [Compound No. 3, 9-chloro-3-methyl-6-(2-(5-methylpyridin-3-yl)ethyl)-1,2,3,4,5,6-hexahydroazepino[4,5-b]indole] | 102% | 91% | 112% | 95% |
| Cc1ccc2c(c1)c1c(n2CC(=O)N2CCC(C)CC2)CCN(C)CC1 [Compound No. 225, 2-(3,9-dimethyl-2,3,4,5-tetrahydroazepino[4,5-b]indol-6(1H)-yl)-1-(4-methylpiperidin-1-yl)ethanone] | 95% | 0% | 13% | 38% |
| CC1CCN(C(=O)Cn2c3c(c4cc(Cl)ccc42)CCN(C)CC3)CC1 [Compound No. 76, 2-(9-chloro-2,3,4,5-tetrahydro-3-methylazepino[4,5-b]indol-6(1H)-yl)-1-(4-methylpiperidin-1-yl)ethanone] | 95% | 7% | 31% | 52% |
